Assay results as given in patent US8309598B2, “Cooling compounds” (Givaudan S.A., priority 2007, dated 2012).

Key:
Format in all cases: in vivo
[1] = Tasting of a dilute solution in de-ionized water against water as control
Description: A 0.1% w/w solution of 5-(4H-benzo[d][1,3]oxathiin-2-yl)-2-methoxyphenol was prepared in ethanol and diluted, with good mixing, into de-ionized water: thereby, generating a 1 ppm solution of 5-(4H-benzo[d][1,3]oxathiin-2-yl)-2-methoxyphenol in water. This solution was tasted using de-ionized water as the control.
A 20 ppm solution of 5-(4H-benzo[d][1,3]oxathiin-2-yl)-2,3-dimethoxyphenol (0.1% w/w in EtOH) was prepared in de-ionized water. The resulting solution was evaluated against de-ionized water as the control.
One gram of a 1000 ppm solution of 2-(4-methoxyphenyl)-4H-benzo[d][1,3]oxathiine in EtOH was added to 99 grams of water generating a 10 ppm taste solution. This solution was tasted relative to water.
One gram of a 1000 ppm solution of 4-(4H-benzo[d][1,3]oxathiin-2-yl)phenol in EtOH was added to 99 grams of water generating a 10 ppm taste solution. This solution was tasted relative to water.

[2] = Tasting in CoolMint Listerine against CoolMint Listerine as control; settings: 0.08% w/w of a 1.0% w/w EtOH solution in 99.92% w/w CoolMint Listerine
Description: A 0.08% w/w sample of 5-(4H-benzo[d][1,3]oxathiin-2-yl)-2,3-dimethoxyphenol (1.0% w/w in EtOH) was added to 99.92% w/w CoolMint Listerine™ and the contents were mixed well. The resulting mixture was tasted using CoolMint Listerine™ as the control.

[3] = Tasting in sweetened lime-flavored beverage against control without compound; settings: 0.07% w/w of a 1.0% w/w EtOH solution in lime beverage (10% fruit sugar, citric acid)
Description: Granulated fruit sugar, 10% w/w, 0.25% w/W of citric acid, 0.24% w/w of FD&C yellow #5 (0.1% w/w in water), 0.24% of FD&C blue #1 (0.01% w/w in water), 0.1% w/w 15 fold lime oil (1.0% w/w in EtOH), 0.03% w/v of sodium citrate and 0.07% w/w of 5-(4H-benzo[d][1,3]oxathiin-2-yl)-2,3-dimethoxyphenol (1.0% w/w in EtOH) were added to 89.07% w/v of de-ionized water. The control was prepared by eliminating 5-(4H-benzo[d][1,3]oxathiin-2-yl)-2,3-dimethoxyphenol and increasing the water content to 89.14%.

[4] = Tasting in banana-flavored thawed vanilla ice cream against control without compound; settings: 0.02 g of a 1% EtOH solution with 0.02 g banana flavor in 99.96 g thawed vanilla ice cream
Description: Vanilla ice cream was thawed in the microwave for 20 seconds. Next, 0.02 g of N&A banana ice cream flavor and 0.02 g of a 1% solution of 5-(4H-benzo[d][1,3]oxathiin-2-yl)-2-ethoxyphenol in EtOH were added to 99.96 g of the thawed vanilla ice cream. The resulting mixture was mixed well with a spoon and tasted relative to the control, which was made up of 0.02 g of the N&A banana flavor in 99.98 g of the thawed vanilla ice cream.

[5] = Tasting in almond-flavored 2% milk against control without compound; settings: 0.01 g of a 1% EtOH solution with 0.01 g natural almond flavor in 99.98 g of 2% milk
Description: Natural almond flavor 0.01 g and 0.01 g of a 1% solution of 4-(4H-benzo[d][1,3]oxathiin-2-yl)benzonitrile in EtOH were added to 99.98 g of 2% milk and the contents were mixed well. This solution was tasted relative to the control, which was made up of 0.01 g of natural almond flavor and 99.99 g of 2% milk.

[6] = Tasting in sugar/lemon flavor water against control without compound; settings: 1 gram of 1000 ppm EtOH solution with 5 g sugar, 1 gram 1% lemon flavor, 93 grams water
Description: Five grams of sugar, 1 gram of a 1% solution of lemon flavor in EtOH and 1 gram of a 1000 ppm solution of 2-(4-methoxyphenyl)-4H-benzo[d][1,3]oxathiine in EtOH were added to 93 grams water. The resulting solution was tasted relative to a control made up of 5 g sugar, 1 gram lemon flavor and 94 g water.
Five grams of sugar, 1 gram of a 1% solution of lemon flavor in EtOH and 1 gram of a 1000 ppm solution of 4-(4H-benzo[d][1,3]oxathiin-2-yl)phenol in EtOH were added to 93 grams water. The resulting solution was tasted relative to a control made up of 5 g sugar, 1 gram lemon flavor and 94 g water.

[7] = Tasting in pistachio-flavored sweetened milk against control without compound; settings: 0.8 ppm sample in pistachio-flavored sweetened milk
Description: A pistachio-flavored sweetened milk was prepared using 87.52% by weight of 2% reduced fat milk, 10% by weight of granulated fruit sugar, 1.4% w/w of FD&C Blue #1 (0.01% w/w in water), 0.8% w/w of FD&C yellow #5 (0.1% w/w in water). 0.2% w/w of natural pistachio flavor (Givaudan) and 0.08% of a 0.10% w/w solution of 5-(4H-benzo[d][1,3]oxathiin-2-yl)-2-methoxyphenol in ethanol generating a 0.8 ppm sample. The control was prepared the same by increasing the milk to 87.6% and leaving out 5-(4H-benzo[d][1,3]oxathiin-2-yl)-2-methoxyphenol.

[8] = Tasting in cantaloupe-flavored taffy against control without compound; settings: 0.14% w/w of a 0.1% w/v EtOH solution in cantaloupe-flavored taffy with malic acid
Description: A desired quantity of taffy was chipped off using hammer and chisel and melted in the microwave for 5-30 seconds depending on batch size. Next, 1.2% w/w of a cantaloupe flavor (Givaudan) was added to 98.26% w/w sample of the taffy followed by 0.4% w/w of granular malic acid and 0.14% w/w of 5-(4H-benzo[d][1,3]oxathiin-2-yl)-2-methoxyphenol (0.1% w/v in EtOH). The control sample was produced the same by increasing the taffy base to make up for the absence of 5-(4H-benzo[d][1,3]oxathiin-2-yl)-2-methoxyphenol in the formula. In both the control and the experimental sample, the contents were well mixed by hand while wearing gloves. The taffy was shaped into individual portions and covered in an airtight container overnight.

[9] = 10 ppm taste solution in water, tasted relative to water

## COc1cc(C2OCc3ccccc3S2)cc(O)c1OC (stereo not drawn) [Example 2, 5-(4H-benzo[d][1,3]oxathiin-2-yl)-2,3-dimethoxyphenol]
[1]; 20 ppm solution in de-ionized water, control de-ionized water
  Comments on flavor properties: cooling, sweet, burns tongue, lingering sweetness, bitter and lingering cooling
[2]
  Comments on flavor modification: retronasal burn, cooling enhancement, intensifies flavor, increased eucalyptus, slow onset then strong burn, sweet and alcohol enhancement
[3]
  Comments on flavor modification: sweet, cooling, astringent, juicy, mouth-watering and tart/bite

## CCOc1ccc(C2OCc3ccccc3S2)cc1O (stereo not drawn) [Example 1, 5-(4H-benzo[d][1,3]oxathiin-2-yl)-2-ethoxyphenol]
[4]
  Comments on flavor modification: enhances flavor, makes the banana riper, increases creaminess, sweeter and cooling

## N#Cc1ccc(C2OCc3ccccc3S2)cc1 (stereo not drawn) [Example 3, 4-(4H-benzo[d][1,3]oxathiin-2-yl)benzonitrile]
[5]
  Comments on flavor modification: stronger flavor, more toasted note, earthy note, more authentic, cooling, bitter almond like, sweeter, more nutty and nut skin

## COc1ccc(C2OCc3ccccc3S2)cc1 (stereo not drawn) [2-(4-methoxyphenyl)-4H-benzo[d][1,3]oxathiine]
[1]; [9]
  Comments on flavor properties: cooling, slightly anisic, lingering cooling
[6]
  Comments on flavor modification: cooling, anise, sweeter, bitter peel, more acidic, tingle, lingering flavor, better aroma and refreshing

## COc1ccc(C2OCc3ccccc3S2)cc1O (stereo not drawn) [5-(4H-benzo[d][1,3]oxathiin-2-yl)-2-methoxyphenol]
[1]; 1 ppm solution in water, control de-ionized water
  Comments on flavor properties relative to the control: sweet, cooling and lingering
[7]
  Comments on flavor modification: enhanced flavor impact, sweeter, cooling, enhanced creaminess, enhanced nutty character, sour aftertaste and brighter
[8]
  Comments on flavor modification: sweeter, cooling, enhanced sourness, salivating, aroma enhancement and increased impact

## Oc1ccc(C2OCc3ccccc3S2)cc1 (stereo not drawn) [Example 4, 4-(4H-benzo[d][1,3]oxathiin-2-yl)phenol]
[1]; [9]
  Comments on flavor properties: slightly sweet and slightly alliaceous
[6]
  Comments on flavor modification: cooling, dirty, sweeter, lemon peel, nutty and bitter
